Target: Metabotropic glutamate receptor 2 (Homo sapiens, UniProt Q14416)
Test: [35S]GTPgammaS Binding Assay: The frozen cell membrane fraction prepared as described above was thawed before use, and the resultant was diluted with a buffer for a binding assay (final concentrations: 20 mM HEPES, 100 mM NaCl, 1 mM MgCl2, 3 uM GDP, 300 ug/mL saponin, 0.1% BSA). The compound of each example was added to a cell membrane fraction containing 1.8 to 3 ug/assay of membrane protein on a plate, followed by incubation at room temperature for 30 minutes. Thereafter, with glutamic acid (in a final concentration of 10 uM) added thereto, incubation was performed at room temperature for 15 minutes, and thereafter, [35S]GTPγS (in a final concentration of 0.8 kBq) and 588 ug WGA-SPA beads were added thereto, followed by incubation at room temperature for 1 hour. After the incubation, the plate was subjected to the centrifugal separation at 2,500 rpm and room temperature, and then, membrane cell binding radioactivity was measured with a top count. A [35S]GTPγS binding amount obtained in the presence of glutamic acid was defined as specific binding. On the basis of ratios of inhibiting the specific binding at various concentrations of the compounds of the respective examples, inhibition curves were obtained. […]
Format: functional

Metabotropic glutamate receptor 2, sequence (Q14416 whole entry): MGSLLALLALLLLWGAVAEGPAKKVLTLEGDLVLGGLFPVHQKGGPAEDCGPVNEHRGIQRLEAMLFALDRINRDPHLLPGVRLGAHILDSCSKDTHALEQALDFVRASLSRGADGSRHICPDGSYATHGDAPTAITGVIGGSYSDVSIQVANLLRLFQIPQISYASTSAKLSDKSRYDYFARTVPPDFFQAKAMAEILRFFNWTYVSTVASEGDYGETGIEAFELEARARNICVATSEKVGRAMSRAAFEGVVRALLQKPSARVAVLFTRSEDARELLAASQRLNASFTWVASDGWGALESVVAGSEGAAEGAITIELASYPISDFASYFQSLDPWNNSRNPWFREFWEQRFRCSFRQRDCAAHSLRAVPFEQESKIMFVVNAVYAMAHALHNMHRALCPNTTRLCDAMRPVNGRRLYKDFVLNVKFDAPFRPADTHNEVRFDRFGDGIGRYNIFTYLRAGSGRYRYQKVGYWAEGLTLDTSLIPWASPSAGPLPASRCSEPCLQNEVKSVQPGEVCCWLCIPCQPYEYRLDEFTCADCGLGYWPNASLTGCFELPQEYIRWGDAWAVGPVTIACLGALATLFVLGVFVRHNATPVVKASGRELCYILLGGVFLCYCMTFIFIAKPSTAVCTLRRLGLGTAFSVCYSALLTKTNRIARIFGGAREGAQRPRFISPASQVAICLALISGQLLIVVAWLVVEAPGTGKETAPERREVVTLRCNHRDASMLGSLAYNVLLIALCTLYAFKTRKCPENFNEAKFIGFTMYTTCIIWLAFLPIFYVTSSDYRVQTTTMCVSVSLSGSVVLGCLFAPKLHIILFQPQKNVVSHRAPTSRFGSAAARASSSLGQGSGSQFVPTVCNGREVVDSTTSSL

- IC50: 4.2 nM
Compound: CCc1ccc(-c2nc(-c3cc(C)nc(C)c3)c3n2C[C@@H](C)OCC3)cc1OC
